Results taken from the NIST ThermoML archive (doi:10.1016/j.jct.2006.03.016).

Test: molar heat capacity at constant pressure
Conditions: 101.33 kPa, Crystal, Small (less than 1 g) adiabatic calorimetry

[Al+3].[Al+3].[O-2].[O-2].[O-2] [aluminum oxide (Al2O3)]
Conditions | molar heat capacity at constant pressure [J/K/mol]
67.51 K | 4.23
72.34 K | 5.283
77.04 K | 6.242
81.8 K | 7.403
86.61 K | 8.725
91.44 K | 10.14
96.31 K | 11.67
101.2 K | 13.33
106.12 K | 15.05
111.05 K | 16.78
116.01 K | 18.55
120.97 K | 20.4
125.95 K | 22.45
126.3 K | 22.61
130.94 K | 24.45
131.11 K | 24.51
136.11 K | 26.55
141.13 K | 28.63
146.18 K | 30.36
151.22 K | 32.53
156.26 K | 34.6
161.32 K | 36.54
166.38 K | 38.67
171.45 K | 40.51
176.54 K | 42.37
181.62 K | 44.42
186.71 K | 46.27
191.8 K | 48.19
192.43 K | 48.27
197.63 K | 50.37
202.75 K | 52.12
207.86 K | 53.85
212.97 K | 55.55
218.09 K | 57.33
223.2 K | 59.08
228.33 K | 60.72
233.45 K | 62.37
238.56 K | 63.95
243.82 K | 65.47
248.97 K | 66.83
253.98 K | 68.28
259.13 K | 69.78
264.27 K | 71.19
269.43 K | 72.53
274.59 K | 73.76
279.73 K | 74.97
284.88 K | 76.16
290.03 K | 77.34
295.19 K | 78.6
300.35 K | 79.79
305.76 K | 80.81
311 K | 82
316.16 K | 83.02
321.33 K | 83.65
326.51 K | 84.83
331.66 K | 86.08

O=C(O)c1ccccc1 [benzoic acid]
Conditions | molar heat capacity at constant pressure [J/K/mol]
15.95 K | 7.243
17.21 K | 7.834
19 K | 9.964
20.93 K | 12.14
22.91 K | 14.48
25.23 K | 16.99
27.83 K | 19.32
30.45 K | 22.55
33.46 K | 25.66
36.82 K | 28.56
40.35 K | 31.83
42.49 K | 34.49
44.38 K | 35.05
46.36 K | 38.04
50.06 K | 39.2
52.26 K | 40.57
54.24 K | 41.94
54.48 K | 43.06
56.71 K | 43.66
59.17 K | 46.1
59.64 K | 45.51
63.04 K | 47.67
67.38 K | 50.03
72.18 K | 52.48
77.01 K | 54.7
81.66 K | 56.45
86.47 K | 58.38
91.42 K | 60.83
96.33 K | 62.66
101.31 K | 64.69
106.39 K | 66.75
111.42 K | 68.59
116.46 K | 70.27
121.51 K | 72.23
126.57 K | 74.39
131.52 K | 76.4
136.54 K | 78.39
141.64 K | 80.14
146.72 K | 81.95
151.83 K | 83.84
156.96 K | 85.94
162.08 K | 87.95
167.21 K | 90.16
172.34 K | 92.08
177.47 K | 93.88
182.61 K | 95.82
187.75 K | 97.76
192.89 K | 100.22
198.03 K | 102.35
203.11 K | 104.33
208.2 K | 106.33
213.34 K | 108.35
218.49 K | 110.69
223.64 K | 113.13
228.8 K | 115.06
233.96 K | 117.66
239.1 K | 120.1
244.26 K | 122.38
249.39 K | 124.56
254.51 K | 127.05
259.67 K | 129.62
264.84 K | 131.98
269.99 K | 134.13
275.13 K | 137.14
280.31 K | 138.73
285.48 K | 141.06
290.65 K | 143.42
296.6 K | 146.34
302.17 K | 148.97
306.93 K | 151.12
312.15 K | 153.27
317.33 K | 155.37
322.49 K | 157.74
326.5 K | 160.6
330.48 K | 161.44
335.65 K | 163.8
340.82 K | 165.96
